From patent publication US20130029970A1 (priority 2009, published 2013)

Columns and labels:
human CB2 (hCB2) = molecular target: T1, human CB2 (hCB2) (Homo sapiens, UniProt P34972); experiment: 35S GTPγS binding assay, hCB2 agonist; type: biochemical; conditions: GTPγS agonist, HEK-293 membranes; read-out: hCB2 EC50 (GTPyS ag)
T1 construct: (cDNA clone) CNR0200000
How it was run: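 Agonist-stimulated [35S]GTPγS (0.1 nM) binding measured by scintillation proximity after 90 min at room temperature. Reaction buffer: 50 mM HEPES pH 7.4, 100 mM NaCl, 5 mM MgCl2, 0.001% saponin plus 20 uM GDP. Membranes (5 μg) came from transfected cells expressing hCB2 cDNA (pcDNA3.1+ vector).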

human CB1 receptors = molecular target: T2, human CB1 receptors (Homo sapiens, UniProt P21554); experiment: cAMP assay in HEK-293 cells, hCB1 agonist; type: cell-based; conditions: inhibition of forskolin-stimulated cAMP, HEK-293 cells; for EC50: read-out: hCB1 EC50 (cAMP ag)
T2 construct: (cDNA clone) CNR01L000
How it was run: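 Agonist EC50 taken as concentration giving half inhibition of forskolin-driven cAMP, normalized to forskolin maximum, from sigmoidal curves. Whole HEK-293 cells stably expressing hCB1, in HEPES/BSA-containing HBSS, exposed 30 min at 37° C. to compound with forskolin (90 uM in 3× dilution); cAMP read after lysis.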

T2 sequence (P21554 whole entry): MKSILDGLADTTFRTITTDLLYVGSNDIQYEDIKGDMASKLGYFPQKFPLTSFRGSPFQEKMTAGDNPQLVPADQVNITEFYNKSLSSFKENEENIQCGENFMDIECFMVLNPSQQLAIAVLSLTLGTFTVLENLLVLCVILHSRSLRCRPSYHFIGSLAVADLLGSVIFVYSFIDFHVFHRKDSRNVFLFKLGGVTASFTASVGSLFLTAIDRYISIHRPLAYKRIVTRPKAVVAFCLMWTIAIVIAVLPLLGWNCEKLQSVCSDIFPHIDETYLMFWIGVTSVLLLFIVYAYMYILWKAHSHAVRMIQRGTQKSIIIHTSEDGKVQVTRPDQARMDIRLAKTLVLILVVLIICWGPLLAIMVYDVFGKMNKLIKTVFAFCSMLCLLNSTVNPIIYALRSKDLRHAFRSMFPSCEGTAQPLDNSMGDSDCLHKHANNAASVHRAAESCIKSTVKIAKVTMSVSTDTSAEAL
T1 sequence (P34972 whole entry): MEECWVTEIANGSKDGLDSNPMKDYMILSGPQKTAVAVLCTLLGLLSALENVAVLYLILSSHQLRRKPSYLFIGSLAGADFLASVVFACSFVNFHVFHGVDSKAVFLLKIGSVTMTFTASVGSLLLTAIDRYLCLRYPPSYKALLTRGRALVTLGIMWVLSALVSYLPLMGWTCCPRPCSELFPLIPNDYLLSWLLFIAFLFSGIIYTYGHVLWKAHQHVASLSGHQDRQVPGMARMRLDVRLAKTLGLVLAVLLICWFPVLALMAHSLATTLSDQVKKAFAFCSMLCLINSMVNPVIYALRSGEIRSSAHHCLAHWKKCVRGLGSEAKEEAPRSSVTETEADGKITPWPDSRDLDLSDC

Structure (SMILES) | EC50 (human CB2 (hCB2)) [nM] | hCB1 EC50 (cAMP ag, nM) (human CB1 receptors) | EC50 (human CB1 receptors) [nM]
Cc1cc2cc(C(=O)c3cccc(Cl)c3)sc2n1CCN1CCOCC1 [Compound 4, (3-Chlorophenyl)(5-methyl-6-(2-morpholinoethyl)-6H-thieno[2,3-b]pyrrol-2-yl)methanone] | < 100 | NS (NS means “Not Significant,” which means less than 30% agonist activity when compared to the positive control.) | –
Cc1cc2cc(C(=O)c3ccccc3)sc2n1CCN1CCOCC1 [Compound 7, (5-Methyl-6-(2-morpholinoethyl)-6H-thieno[2,3-b]pyrrol-2-yl)(phenyl)methanone] | 100 to 1000 | – | 1000 to 10000
Cc1cc2cc(C(=O)c3ccc(Cl)cc3Cl)sc2n1CCN1CCOCC1 [Compound 10, (2,4-Dichlorophenyl)(5-methyl-6-(2-morpholinoethyl)-6H-thieno[2,3-b]pyrrol-2-yl)methanone] | < 100 | – | 100 to 1000
Cc1ccccc1C(=O)c1cc2cc(C)n(CCN3CCOCC3)c2s1 [Compound 12, (5-Methyl-6-(2-morpholinoethyl)-6H-thieno[2,3-b]pyrrol-2-yl)(o-tolyl)methanone] | < 100 | – | 100 to 1000
CCn1c(C)cc2cc(C(=O)c3cccc(Cl)c3Cl)sc21 [Compound 19, (2,3-Dichlorophenyl)(6-ethyl-5-methyl-6H-thieno[2,3-b]pyrrol-2-yl)methanone] | 100 to 1000 | NS (NS means “Not Significant,” which means less than 30% agonist activity when compared to the positive control.) | –
CCS(=O)(=O)n1c(C)cc2cc(C(=O)c3cccc(Cl)c3Cl)sc21 [Compound 25, (2,3-Dichlorophenyl)(6-(ethylsulfonyl)-5-methyl-6H-thieno[2,3-b]pyrrol-2-yl)methanone] | < 100 | NS (NS means “Not Significant,” which means less than 30% agonist activity when compared to the positive control.) | –
COc1cccc(C(=O)c2cc3cc(C)n(CCN4CCOCC4)c3s2)c1 [Compound 26, (3-Methoxyphenyl)(5-methyl-6-(2-morpholinoethyl)-6H-thieno[2,3-b]pyrrol-2-yl)methanone] | < 100 | – | 100 to 1000
Cc1cc2cc(C(=O)c3cccc(Cl)c3Cl)sc2n1CC1CCOCC1 [Compound 31, (2,3-Dichlorophenyl)(5-methyl-6-((tetrahydro-2H-pyran-4-yl)methyl)-6H-thieno[2,3-b]pyrrol-2-yl)methanone] | < 100 | NS (NS means “Not Significant,” which means less than 30% agonist activity when compared to the positive control.) | –
Cc1cc2cc(Cc3cccc(Cl)c3Cl)sc2n1CCN1CCOCC1 [Compound 32, 4-(2-(2-(2,3-Dichlorobenzyl)-5-methyl-6H-thieno[2,3-b]pyrrol-6-yl)ethyl)morpholine] | < 100 | – | 1000 to 10000
Cc1cc2cc(C(=O)c3cccc(Cl)c3Cl)sc2n1CCCNS(C)(=O)=O [Compound 37, N-(3-(2-(2,3-Dichlorobenzoyl)-5-methyl-6H-thieno[2,3-b]pyrrol-6-yl)propyl)methanesulfonamide] | < 100 | NS (NS means “Not Significant,” which means less than 30% agonist activity when compared to the positive control.) | –
Cc1cc2cc(C(=O)c3cccc(Cl)c3Cl)sc2n1S(=O)(=O)C(C)C [Compound 38, (2,3-Dichlorophenyl)(6-(isopropylsulfonyl)-5-methyl-6H-thieno[2,3-b]pyrrol-2-yl)methanone] | < 100 | NS (NS means “Not Significant,” which means less than 30% agonist activity when compared to the positive control.) | –
CCS(=O)(=O)n1c(C)cc2cc(C(=O)c3ccccc3Cl)sc21 [Compound 42, (2-Chlorophenyl)(6-(ethylsulfonyl)-5-methyl-6H-thieno[2,3-b]pyrrol-2-yl)methanone] | < 100 | NS (NS means “Not Significant,” which means less than 30% agonist activity when compared to the positive control.) | –
